Measured values taken from article PMC8096218, “Global RNA profiles show target selectivity and physiological effects of peptide-delivered antisense antibiotics” (Nucleic Acids Research, 2021).
Several values for one entry are separate records, joined by “and”; a condition that tells them apart may be missing. Equal entries are not always repeated.

Key:
Type in all cases: cell-based, Salmonella enterica serovar Typhimurium
LT2 PhoP^C = assay: MIC determination by broth microdilution; conditions: ∼10^5 cfu/ml; for increase in the MIC in the PhoP^C background compared to the wild-type strain: LT2 PhoP^C versus LT2 wt; for MIC in μM, LT2 PhoP^C: Table 3, three biological replicates
Protocol: MIC values were determined by broth microdilution according to standard protocols with a few modifications ([26]). An overnight bacterial cell culture, supplemented with the appropriate antibiotic when needed, was diluted 1:100 in fresh MHB and grown to OD600 0.5. The obtained culture was diluted to ∼10^5 cfu/ml or 10^6 cfu/ml, as indicated, in non-cation-adjusted MHB. Subsequently, 190 μl bacterial solution was dispensed into a 96-well plate (Thermo Fisher Scientific) along with 10 μl of a 20x PPNA, PNA or peptide working solution. Growth was monitored by measuring the OD at 600 nm every 20 min in a Synergy H1 plate reader (Biotek) with continuous double-orbital shaking (237 cpm) at 37°C for 24 h.
Fig. S5. Growth k inetics for MIC determ ination of 10^5 cfu/m l Salmonella wt (LT 2) and its isogenic
Pho PC m utant in the presen ce of var ying co ncentra tio n s of the in dicat ed co njugat e s. ( A) KFF-acpP,
KFF-acpP-scram bled (scr) or KFF peptide in s erial dilutions from 10 µM to 0.3 µM. ( B) RXR- acpP,
RXR- acpP-scram bled (scr) or RXR peptide in serial dilutions from 10 µM to 0.3 µ M. ( C) T at-acpP,
T at-acpP-scram bled (scr) or T at peptide in serial dilutions from 20 µM to 0.6 µM. Data represent
the average of three biological replicates, error bars indicate standard error of the m ean (SEM).
(1 picture or pasted object on this page, not shown here)

Salmonella wt = assay: Kinetics of bactericidal effects (cfu determination and spot assay); conditions: ∼10^6 cfu/ml, 5 μM KFF-acpP, 5 μM RXR-acpP, 10 μM Tat-acpP versus scrambled counterparts; for time post treatment from which killing / reduced cfu/ml was visible: time points 15, 20, 40, 60, 120 min, performed three times
Protocol: An overnight bacterial cell culture was diluted 1:100 in fresh MHB and grown to OD600 0.5. The obtained culture was diluted to approximately 10^6 cfu/ml in non-cation-adjusted MHB. Afterwards, aliquots of 10 μl were directly used as input condition for cfu determination and spot assay on LB agar plates. Regarding the latter, serial dilutions were prepared as indicated, to evaluate the alteration of living bacteria upon exposure to the different PPNAs. At the same time, 190 μl of this bacterial solution was placed into 2 ml eppendorf tubes along with 10 μl of a 20× on-target or scrambled PPNA solution, adjusting the indicated MICs. At the indicated time points post treatment, aliquots were used for cfu determination and spot assay.
Figure 3. Kinetics of bactericidal effects for (A) 5 μM KFF-acpP versus 5 μM KFF-acpP-scr, (B) 5 μM RXR-acpP versus 5 μM RXR-acpP-scr and (C) 10 μM Tat-acpP versus 10 μM Tat-acpP-scr against Salmonella wt (∼10^6 cfu/ml). After the indicated time points post treatment (15, 20, 40, 60, 120 min), aliquots of each sample were harvested to determine the number of viable cells over time (cfu/ml […]; left panels). Additional aliquots were subjected to spot assays on LB agar plates, including the indicated dilutions (right panels). The experiment was performed three times. Error bars indicate standard error of the mean.

acpP mRNA = assay: RNA-seq differential expression, target transcript; conditions: 5 μM KFF-/RXR-constructs, 10 μM Tat-constructs, triplicates; for reduction in acpP transcript levels (RNA-seq): 15 min post treatment, ∼10^6 cfu/ml, versus water control; for logFC acpP: edgeR, versus water, 15 min
Protocol: Bacterial overnight cultures were diluted 1:100 in fresh MHB and grown to OD600 0.5. The obtained cultures were diluted to ∼10^6 cfu/ml in non-cation-adjusted MHB. Afterward, the bacterial solution was transferred into low-binding 5 ml tubes (LABsolute) along with the 20× PNA, peptide or PPNA solution. The final concentrations were 5 μM for KFF- and RXR-PNAs, and 10 μM for Tat-PNAs. Equimolar concentrations were used for the respective peptide control conditions. As a negative control, cells were treated with the respective volume of sterile nuclease-free water, which was used as solvent for the test compounds.
A time kinetic was performed for subsequent northern blot analysis (5, 10, 15 min), in which the reaction was stopped at the indicated time points by using RNAprotect Bacteria (Qiagen). For RNA-seq analyses, adding RNAprotect Bacteria at 15 min post treatment stopped the reactions with the indicated PPNA constructs or the respective peptide. After vortexing for 5 s, the samples were incubated at room temperature for 10 min, followed by cell pelleting at 4°C and 21 100 ×g for 20 min. Pellets were directly used for RNA isolation or stored at –20°C (<2 days) until further processing. RNA was purified from bacterial pellets using isolation protocol #3, as described above (0.5 mg/ml lysozyme, miRNeasy).
DNase treatment, cDNA library preparation and sequencing was conducted at Vertis (Munich, Germany). The RNA samples were first fragmented using ultrasound (4 pulses of 30 s each at 4°C). Then, an oligonucleotide adapter was ligated to the 3′ ends of the RNA molecules. First-strand cDNA synthesis was performed using M-MLV reverse transcriptase and the 3′ adapter as primer. The first-strand cDNA was purified and the 5′ Illumina TruSeq sequencing adapter was ligated to the 3′ end of the antisense cDNA. The resulting cDNA was PCR-amplified to about 10–20 ng/μl using a high fidelity DNA polymerase. The cDNA was purified using the Agencourt AMPure XP kit (Beckman Coulter Genomics) and was analyzed by capillary electrophoresis. For Illumina NextSeq sequencing, the samples were pooled in approximately equimolar amounts. The cDNA pool was sequenced on an Illumina NextSeq 500 system using 75 bp read length.
Reads from the RNA-Seq experiments were trimmed, filtered and mapped against the S. enterica subsp. enterica serovar Typhimurium SL1344 reference genome and the three plasmids pSLT_SL1344, pCol1B9_SL1344 (other name is p2), and pRSF1010_SL1344 ([19]). BBDuk was applied to trim bases with a Phred quality score of <10, and adapters were removed simultaneously. Reads were then mapped against the reference genome using BBMap (v38.84) and then assigned genomic features, including both coding sequences and annotated sRNAs ([19],[29]) using the featureCounts method of the Subread (2.0.1) package.
All downstream analysis was performed using packages from the R/Bioconductor project. The raw read counts were imported and analyzed with edgeR (v3.30.0). Each set of PNA-peptide conjugate experiments (i.e. experiments with KFF, RXR and Tat peptide) was analyzed simultaneously. Genes with less than 14.6 counts per million (CPM) in at least three libraries were filtered. This cutoff value was calculated using 10/L, where L is the library size of the smallest sample (minimum library size) in millions.
Raw read counts were normalized by trimmed mean of M values (TMM) normalization. Differential expression analysis was conducted using edgeR ([31]). Estimation of quasi-likelihood (QL) dispersions was then run with the […] function. Then contrasts between all samples versus the water controls were created as input for the glmQLTest function.
Genes with an absolute fold change >2 and an adjusted P-value (Benjamini–Hochberg, ([32])) <0.001 were considered differentially expressed.

Row | Sequence | increase in the MIC in the PhoP^C background compared to the wild-type strain (LT2 PhoP^C) | MIC in μM, LT2 PhoP^C (LT2 PhoP^C) | bactericidal effects (cfu/ml, spot assay) (Salmonella wt) | time post treatment from which killing / reduced cfu/ml was visible (Salmonella wt) [min] | reduction in acpP transcript levels (RNA-seq) (acpP mRNA) | logFC acpP (acpP mRNA)
1 | GRKKKRRQRRRYK [Tat-acpP, Tat peptide conjugated to 10-mer antisense PNA against acpP] | at least two to four times more resistant | 10 µM | time-delayed and less pronounced | ≥ 40 | ~3 fold | -1.6191
2 | KFFKFFKFFK [KFF-acpP, KFF peptide conjugated to 10-mer antisense PNA against the translational start site of acpP] |  | did not influence the inhibitory activity and 1.25 μM | fast and strong killing | ≥ 15 | 4.5- to 5 fold | -2.241
3 | RXRRXRRXRRXRXB [RXR-acpP, RXR peptide conjugated to 10-mer antisense PNA against acpP] | 2 fold | 2.5 µM | fast and strong killing | ≥ 15 | 4.5- to 5 fold | -2.35
